Patent US11827628B2, “Compositions and methods for inhibition of the JAK pathway” (Rigel Pharmaceuticals, Inc., priority 2005, dated 2023)

How the values were obtained:
[1] = test system: Primary human T-cells; experiment: Primary Human T-Cell Proliferation Assay Stimulated with IL-2 (CellTiter-Glo); format: cell-based; conditions: primary human T-cell proliferation stimulated with IL-2; read-out: IC50, Example 42
Method in brief: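 Peripheral blood T-cells pre-activated with anti-CD3/anti-CD28 and IL-2 were washed free of IL-2, then cultured with compound plus IL-2 for 72 hours at 37° C, duplicate wells. Viability read as ATP by CellTiter-Glo luminescence; IC50 reported.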

[2] = test system: IL-4 stimulated expression of CD23 in human Ramos B cells (JAK-1 and JAK-3); experiment: Assay for Ramos B-Cell Line Stimulated with IL-4 (CD23 upregulation, FACS); format: cell-based; conditions: Ramos B-cell line stimulated with IL-4; CD23 expression by FACS; read-out: IC50, Example 41
Method in brief: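 Human Ramos B cells in RPMI with 5% serum were pre-incubated with compound or DMSO for 1 h at 37 °C, then stimulated with IL-4 at a final 50 units/mL for 20-24 h. CD23 upregulation was measured by anti-CD23-PE staining and flow cytometry, and IC50 values were calculated.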

IC50 [2] | Compound | IC50 [1]
518 nM | CCN(CC)CCNS(=O)(=O)c1cccc(Nc2ncc(F)c(Nc3ccc(OCc4csc(C)n4)cc3)n2)c1 [Compound I-283, N2-[3-(2-N,N-Diethylaminoethyl)aminosulfonylphenyl)-5-fluoro-N4-[4-(2-methylthizol-4-yl)methyleneoxyphenyl]-2,4-pyrimidinediamine] | 362 nM
344 nM | Cc1cc(COc2ccc(Nc3nc(Nc4ccc(C)c(S(N)(=O)=O)c4)ncc3F)cc2Cl)no1 [Compound I-221, N2-(3-Aminosulfonyl-4-methylphenyl)-N4-[3-chloro-4-(5-methylisoxazol-3-yl)methyleneoxyphenyl]-5-fluoro-2,4-pyrimidinediamine] | 2680 nM
76 nM | Cc1ccc(Nc2ncc(F)c(Nc3ccc(CCC#N)cc3)n2)cc1S(N)(=O)=O [III-15, N2-(3-Aminosulfonyl-4-methylphenyl)-N4-[4-(cyanoethylene)phenyl]-5-fluoro-2,4-pyrimidinediamine] | 107 nM
273 nM | N#CCCc1ccc(Nc2nc(Nc3ccc(F)c(S(N)(=O)=O)c3)ncc2F)cc1 [III-16, N2-(3-Aminosulfonyl-4-fluorophenyl)-N4-[4-(cyanoethylene)phenyl]-5-fluoro-2,4-pyrimidinediamine] | 342 nM
151 nM | CNS(=O)(=O)c1cc(Nc2ncc(F)c(Nc3ccc(CC#N)cc3)n2)ccc1C [III-1, 5-Fluoro-N2-[3-(N-methylaminosulfony)-4-methylphenyl]-5-fluoro-N4-(4-cyanomethylphenyl)-2,4-pyrimidinediamine] | 545 nM
61.9 nM | Cc1ccc(Nc2ncc(F)c(Nc3cc(C)c(OCC#N)c(C)c3)n2)cc1S(N)(=O)=O [Compound I-27, N2-(3-Aminosulfonyl-4-methyl)phenyl-N4-(4-cyanomethoxy-3,5-dimethyl)phenyl-5-fluoro-2,4-pyrimidinediamine] | 914 nM
27.9 nM | Cc1noc(COc2ccc(Nc3nc(Nc4ccc(C)c(S(N)(=O)=O)c4)ncc3F)cc2)n1 [Compound I-259, N2-(3-Aminosulfonyl-4-methylphenyl)-5-fluoro-N4-[4-(3-methyl-1,2,4-oxadiazol-5-yl)methyleneoxyphenyl]-2,4-pyrimidinediamine] | 65.8 nM
134 nM | Cc1ccc(Nc2ncc(F)c(Nc3cccc(CNC(=O)C4CC4)c3)n2)cc1S(N)(=O)=O [III-40, N2-(3-aminosulfonyl-4-methyl)phenyl-N4-(3-cyclopropylcarbonylaminomethyl)phenyl-5-fluoro-2,4-pyrimidinediamine] | 229 nM
64.2 nM | Cc1ccc(Nc2ncc(C)c(Nc3ccc(CCC#N)cc3)n2)cc1S(N)(=O)=O [III-11] | 46 nM
93.2 nM | Cc1nc(COc2ccc(Nc3nc(Nc4cccc(S(N)(=O)=O)c4)ncc3F)cc2)cs1 [Compound I-281, N2-(3-Aminosulfonylphenyl)-5-fluoro-N4-[4-(2-methylthiazol-4-yl)methyleneoxyphenyl]-2,4-pyrimidinediamine] | 90.4 nM
232 nM | CN1CCC(Oc2ccc(Nc3nc(Nc4cccc(S(N)(=O)=O)c4)ncc3F)cc2)C1 (stereo not drawn) [II-9, N2-(3-Aminosulfonylphenyl)-5-fluoro-N4-(N-methylpyrrolidin-3-yloxyphenyl)-2,4-pyrimidinediamine] | 1320 nM
72.6 nM | Cc1cc(COc2ccc(Nc3nc(Nc4cc(C)c(Cl)c(S(N)(=O)=O)c4)ncc3F)cc2)no1 [Compound I-218, N2-(3-Aminosulfonyl-4-chloro-5-methylphenyl)-5-fluoro-N4-[4-(5-methylisoxazol-3-yl)methyleneoxyphenyl]-2,4-pyrimidinediamine] | 116 nM
509 nM | CN1CCN(S(=O)(=O)c2cccc(Nc3ncc(F)c(Nc4ccc(OCC#N)cc4)n3)c2)CC1 [Compound I-19, N4-(4-Cyanomethoxy)phenyl-5-fluoro-N2-[3-(4-methylpiperazin-1-yl)sulfonyl]phenyl-2,4-pyrimidinediamine] | 1040 nM
42.3 nM | Cc1noc(COc2ccc(Nc3nc(Nc4cc(C)c(Cl)c(S(N)(=O)=O)c4)ncc3F)cc2)n1 [Compound I-265, N2-(3-Aminosulfonyl-4-chloro-5-methylphenyl)-5-fluoro-N4-[4-(3-methyl-1,2,4-oxadiazol-5-yl)methyleneoxyphenyl]-2,4-pyrimidinediamine] | 39.7 nM
28 nM | Cc1noc(COc2ccc(Nc3nc(Nc4cccc(S(N)(=O)=O)c4)ncc3F)cc2)n1 [Compound I-258, N2-(3-Aminosulfonylphenyl)-5-fluoro-N4-[4-(3-methyl-1,2,4-oxadiazol-5-yl)methyleneoxyphenyl]-2,4-pyrimidinediamine] | 55.4 nM
31.6 nM | Cc1cc(COc2ccc(Nc3nc(Nc4ccc(C)c(S(N)(=O)=O)c4)ncc3F)cc2)no1 [Compound I-219, N2-(3-Aminosulfonyl-4-methylphenyl)-5-fluoro-N4-[4-(5-methylisoxazol-3-yl)methyleneoxyphenyl]-2,4-pyrimidinediamine] | 123 nM
64.5 nM | NS(=O)(=O)c1cccc(Nc2ncc(F)c(Nc3ccc(Cc4ccncc4)cc3)n2)c1 [III-70, N2-(3-Aminosulfonylphenyl)-5-fluoro-N4-[4-(4-pyridinylmethyl)phenyl]-2,4-pyrimidinediamine] | 169 nM
182 nM | Cc1ccc(Nc2ncc(F)c(Nc3cccc(OC4CCCN(C)C4)c3)n2)cc1S(N)(=O)=O (racemic) [II-1, Racemic N2-(3-aminosulfonyl-4-methylphenyl)-5-fluoro-N4-{3-[(1-methylpiperidin-3-yl)oxy]phenyl}-2,4-pyrimidinediamine] | 1140 nM
148 nM | Cc1cc(COc2ccc(Nc3nc(Nc4ccc(F)c(S(N)(=O)=O)c4)ncc3F)cc2)no1 [Compound I-233, N2-(3-Aminosulfonyl-4-fluorophenyl)-5-fluoro-N4-[4-(5-methylisoxazol-3-yl)methyleneoxyphenyl]-2,4-pyrimidinediamine] | 377 nM
36.7 nM | Cc1ccc(Nc2ncc(F)c(Nc3ccc(OCC#N)cc3)n2)cc1S(N)(=O)=O [Compound I-20, N2-(3-Aminosulfonyl-4-methyl)phenyl-N4-(4-cyanomethoxy)phenyl-5-fluoro-2,4-pyrimidinediamine] | 66.2 nM
225 nM | N#CCc1ccc(Nc2nc(Nc3ccc(F)c(S(N)(=O)=O)c3)ncc2F)cc1 [III-10, N2-(3-Aminosulfonyl-4-fluoro)phenyl-N4-(4-cyanomethyl)phenyl-5-fluoro-2,4-pyrimidinediamine] | 922 nM
96.5 nM | N#CCOc1ccc(Nc2nc(Nc3ccc(F)c(S(N)(=O)=O)c3)ncc2F)cc1 [Compound I-33, N2-(3-Aminosulfonyl-4-fluoro)phenyl-N4-(4-cyanomethoxy)phenyl-5-fluoro-2,4-pyrimidinediamine] | 170 nM
140 nM | N#CCCc1ccc(Nc2nc(Nc3cccc(S(N)(=O)=O)c3)ncc2F)cc1 [III-14, N2-(3-aminosulfonylphenyl)-N4-[4-(cyanoethylene)phenyl]-5-fluoro-2,4-pyrimidinediamine] | 52.6 nM
102 nM | Cc1cc(COc2ccc(Nc3nc(Nc4ccc(C)c(S(N)(=O)=O)c4)ncc3F)cc2C)no1 [Compound I-234, N2-(3-Aminosulfonyl-4-methylphenyl)-5-fluoro-N4-[3-methyl-4-(5-methylisoxazol-3-yl)methyleneoxyphenyl]-2,4-pyrimidinediamine] | 1010 nM
117 nM | NS(=O)(=O)c1cccc(Nc2ncc(F)c(Nc3cccc(CNC(=O)C4CC4)c3)n2)c1 [III-39, N2-(3-aminosulfonyl)phenyl-N4-(3-cyclopropylcarbonylaminomethyl)phenyl-5-fluoro-2,4-pyrimidinediamine] | 130 nM
124 nM | CCN(CC)CCNS(=O)(=O)c1ccc(Nc2ncc(F)c(Nc3ccc(OCc4nc(C)no4)cc3)n2)cc1 [Compound I-263, N2-[4-(2-N,N-Diethylaminoethyl)aminosulfonylphenyl)-5-fluoro-N4-[4-(3-methyl-1,2,4-oxadiazol-5-yl)methyleneoxyphenyl]-2,4-pyrimidinediamine] | 64.4 nM
54.2 nM | Cc1cc(Nc2nc(Nc3ccc(C)c(S(N)(=O)=O)c3)ncc2F)ccc1OCC#N [Compound I-24, N2-(3-Aminosulfonyl-4-methyl)phenyl-N4-(4-cyanomethoxy-3-methyl)phenyl-5-fluoro-2,4-pyrimidinediamine] | 296 nM
55.8 nM | Cc1cc(Nc2nc(Nc3ccc(S(N)(=O)=O)cc3)ncc2F)cc(C)c1OCC#N [Compound I-25, N2-(4-Aminosulfonyl)phenyl-N4-(4-cyanomethoxy-3,5-dimethyl)phenyl-5-fluoro-2,4-pyrimidinediamine] | 1610 nM
94.8 nM | CNS(=O)(=O)c1cc(Nc2ncc(F)c(Nc3ccc(OCc4nc(C)no4)cc3)n2)ccc1C [Compound I-260, 5-Fluoro-N2-[3-N-(methyl)aminosulfonyl-4-methylphenyl)-N4-[4-(3-methyl-1,2,4-oxadiazol-5-yl)methyleneoxyphenyl]-2,4-pyrimidinediamine] | 223 nM
256 nM | CNS(=O)(=O)c1cc(Nc2ncc(F)c(Nc3cccc(OCc4nc(C)no4)c3)n2)ccc1C [Compound I-255, 5-Fluoro-N2-[3-(N-methylaminosulfony)-4-methylphenyl]-N4-[3-(3-methyl-1,2,4-oxadiazol-5-yl)methyleneoxyphenyl]-2,4-pyrimidinediamine] | 2860 nM
